The record followed here is US20230117034A1, “PYRAZOLOTRIAZINES” (Bayer Aktiengesellschaft, priority 2019, published 2023).

Some results are limits rather than exact numbers.

Test [1] has as its target T1, CDK12 (nuclear staining in CAL-120 cells) (Homo sapiens, UniProt Q9NYV4).
T1 construct: endogenous in cells; host or cells: CAL-120 human breast cancer cells (DSMZ ACC 459)
Nature of the test: CDK12 nuclear protein level: immunofluorescence/high content analysis (CAL-120). The test is classed as cell-based. The note with it: for DC50: CAL-120 cells, 24 h, immunofluorescence, 50% reduction of nuclear CDK12 staining intensity, median, read-out: CDK12 degradation IF, DC50- [mol/l] (median); for (IC50 CDK12 high ATP) to (Degradation DC50 CDK12) ratio: ratio of IC50 CDK12 high ATP kinase assay to DC50 CDK12 degradation (IF, CAL-120). The essentials: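 CAL-120 cells were treated with compound for 24 h at 37 °C, fixed with PFA and immunostained for CDK12. Nuclear CDK12 intensity was quantified by automated image analysis and normalized to DMSO and control. DC50 is the concentration giving 50% reduction of nuclear staining.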

For test [2], the target named is CDK12/CycK (Homo sapiens, UniProt Q9NYV4). Description: CDK12/CycK high ATP kinase assay (TR-FRET, 2 mM ATP). The format is biochemical. Particulars: 2 mM ATP (high ATP); median; read-out: CDK12/CyclinK, 2 mM ATP (high ATP), IC50-[mol/l] (median). The method in brief: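 His-tagged human CDK12/CycK (~0.75 nM) pre-incubated 15 min with compound, then 60 min at 22 °C with 2 mM ATP and 1 µM biotinylated peptide (HEPES pH 7.5, 20 mM MgCl2). EDTA stop; phospho-Ser62 antibody/Eu anti-rabbit and streptavidin-XL665 TR-FRET, 665/620 nm ratio normalised to give IC50.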
In general terms: TR-FRET usually uses a lanthanide donor and a delayed reading to cut background.

T1 sequence (Q9NYV4 whole entry): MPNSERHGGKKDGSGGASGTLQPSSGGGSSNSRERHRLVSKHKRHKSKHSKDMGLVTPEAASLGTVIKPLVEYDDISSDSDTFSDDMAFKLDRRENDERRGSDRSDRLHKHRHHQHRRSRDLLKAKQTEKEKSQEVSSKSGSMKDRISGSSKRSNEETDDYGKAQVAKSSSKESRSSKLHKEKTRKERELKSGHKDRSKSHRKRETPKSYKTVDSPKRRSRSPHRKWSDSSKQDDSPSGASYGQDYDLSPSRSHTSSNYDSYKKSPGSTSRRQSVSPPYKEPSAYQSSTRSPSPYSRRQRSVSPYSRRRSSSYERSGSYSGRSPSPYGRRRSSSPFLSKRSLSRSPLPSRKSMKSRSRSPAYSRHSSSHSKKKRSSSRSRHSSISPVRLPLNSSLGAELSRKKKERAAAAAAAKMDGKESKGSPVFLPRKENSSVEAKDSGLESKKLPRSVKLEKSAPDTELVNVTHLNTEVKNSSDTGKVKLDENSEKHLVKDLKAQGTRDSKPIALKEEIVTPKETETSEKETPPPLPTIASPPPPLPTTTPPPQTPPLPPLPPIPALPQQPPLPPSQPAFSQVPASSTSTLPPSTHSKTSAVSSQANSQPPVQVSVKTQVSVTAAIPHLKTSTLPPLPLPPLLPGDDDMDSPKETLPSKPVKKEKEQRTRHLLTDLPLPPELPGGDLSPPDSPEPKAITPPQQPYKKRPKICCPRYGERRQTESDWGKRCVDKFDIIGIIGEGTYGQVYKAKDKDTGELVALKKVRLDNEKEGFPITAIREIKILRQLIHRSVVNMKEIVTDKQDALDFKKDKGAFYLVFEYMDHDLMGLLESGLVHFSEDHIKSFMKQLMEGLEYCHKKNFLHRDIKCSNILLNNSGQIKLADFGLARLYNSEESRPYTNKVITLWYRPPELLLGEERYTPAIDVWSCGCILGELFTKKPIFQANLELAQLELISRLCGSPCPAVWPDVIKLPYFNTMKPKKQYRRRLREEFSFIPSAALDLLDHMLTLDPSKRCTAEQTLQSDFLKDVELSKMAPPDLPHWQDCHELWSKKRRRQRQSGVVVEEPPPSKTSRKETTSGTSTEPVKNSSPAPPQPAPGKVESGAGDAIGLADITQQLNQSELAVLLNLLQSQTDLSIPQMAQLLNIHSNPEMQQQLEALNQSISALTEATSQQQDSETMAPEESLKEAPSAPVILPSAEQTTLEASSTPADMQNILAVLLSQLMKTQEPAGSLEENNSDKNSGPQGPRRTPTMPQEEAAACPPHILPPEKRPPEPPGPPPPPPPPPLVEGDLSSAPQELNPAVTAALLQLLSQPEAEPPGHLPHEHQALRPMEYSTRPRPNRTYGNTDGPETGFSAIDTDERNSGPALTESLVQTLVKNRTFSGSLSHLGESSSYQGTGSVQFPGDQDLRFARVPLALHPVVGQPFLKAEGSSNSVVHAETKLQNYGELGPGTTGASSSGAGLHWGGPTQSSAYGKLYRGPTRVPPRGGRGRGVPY
T1 sequence (O75909 whole entry partner): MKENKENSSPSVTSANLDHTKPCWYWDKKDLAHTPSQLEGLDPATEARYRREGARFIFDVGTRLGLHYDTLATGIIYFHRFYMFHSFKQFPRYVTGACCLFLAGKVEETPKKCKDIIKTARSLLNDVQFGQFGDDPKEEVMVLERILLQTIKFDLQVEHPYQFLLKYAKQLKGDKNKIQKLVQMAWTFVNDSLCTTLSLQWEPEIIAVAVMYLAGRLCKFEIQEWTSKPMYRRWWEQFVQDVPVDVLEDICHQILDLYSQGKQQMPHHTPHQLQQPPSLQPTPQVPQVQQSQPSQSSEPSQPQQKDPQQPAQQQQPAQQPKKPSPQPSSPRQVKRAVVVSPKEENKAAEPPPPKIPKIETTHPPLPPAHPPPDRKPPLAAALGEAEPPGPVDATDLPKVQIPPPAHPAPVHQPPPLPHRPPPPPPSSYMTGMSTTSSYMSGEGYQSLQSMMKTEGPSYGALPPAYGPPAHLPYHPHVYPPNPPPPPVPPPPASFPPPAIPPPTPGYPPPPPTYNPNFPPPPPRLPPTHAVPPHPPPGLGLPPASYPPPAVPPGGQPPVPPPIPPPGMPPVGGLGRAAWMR
Sequence of CDK12/CycK (Q9NYV4 with tags, fused parts or gaps): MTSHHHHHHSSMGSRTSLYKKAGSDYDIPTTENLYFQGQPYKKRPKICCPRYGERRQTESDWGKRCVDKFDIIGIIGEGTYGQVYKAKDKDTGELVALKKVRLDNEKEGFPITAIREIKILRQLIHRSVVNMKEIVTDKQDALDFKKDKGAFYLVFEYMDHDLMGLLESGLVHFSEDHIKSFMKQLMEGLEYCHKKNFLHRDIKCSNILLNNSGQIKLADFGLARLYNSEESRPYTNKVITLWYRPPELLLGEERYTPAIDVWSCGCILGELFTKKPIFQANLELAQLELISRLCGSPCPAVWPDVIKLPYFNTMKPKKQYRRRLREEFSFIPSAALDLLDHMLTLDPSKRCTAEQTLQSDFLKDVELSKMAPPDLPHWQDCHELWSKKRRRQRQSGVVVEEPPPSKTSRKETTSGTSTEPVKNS
Sequence of CDK12/CycK (O75909 1-300 partner limits assumed): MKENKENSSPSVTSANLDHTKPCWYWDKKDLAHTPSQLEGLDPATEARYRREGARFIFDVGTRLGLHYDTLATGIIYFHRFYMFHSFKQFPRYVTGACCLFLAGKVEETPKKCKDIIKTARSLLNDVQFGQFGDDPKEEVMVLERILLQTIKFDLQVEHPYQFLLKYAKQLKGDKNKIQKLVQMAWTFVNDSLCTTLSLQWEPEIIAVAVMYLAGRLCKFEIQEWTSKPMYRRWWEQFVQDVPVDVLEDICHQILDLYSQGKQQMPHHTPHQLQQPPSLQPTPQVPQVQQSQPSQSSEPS

As to `CN(CC(C)(C)O)c1nc(NCc2nc3c(F)c(Cl)ccc3[nH]2)n2ncc(Br)c2n1` [Example 374, 1-[(8-bromo-4-{[(5-chloro-4-fluoro-1H-benzimidazol-2-yl)methyl]amino}pyrazolo[1,5-a][1,3,5]triazin-2-yl)(methyl)amino]-2-methylpropan-2-ol], in test [1], the DC50 is 1.81 nM and the “(IC50 CDK12 high ATP) to (Degradation DC50 CDK12) ratio” value worked out at 85. In addition, the IC50 in test [2] stood at 0.155 µM.

With `Fc1cc2nc(CNc3nc(N4CC5CCC(C4)N5)nc4c(C5CC5)cnn34)[nH]c2cc1F` [Example 325, 8-cyclopropyl-2-(3,8-diazabicyclo[3.2.1]octan-3-yl)-N-[(5,6-difluoro-1H-benzimidazol-2-yl)methyl]pyrazolo[1,5-a][1,5]triazin-4-amine], in test [1], the DC50 was 1.88 nM and the “(IC50 CDK12 high ATP) to (Degradation DC50 CDK12) ratio” value is 1890. Also, in test [2], the IC50 is 3.55 µM.

Consider `Fc1cccc2[nH]c(CNc3nc(N4CC5CCC(C4)N5)nc4c(Cl)cnn34)nc12` [Example 363, 8-chloro-2-(3,8-diazabicyclo[3.2.1]octan-3-yl)-N-[(4-fluoro-1H-benzimidazol-2-yl)methyl]pyrazolo[1,5-a][1,3,5]triazin-4-amine], for which, in test [1], the DC50 amounted to 11.9 nM and the “(IC50 CDK12 high ATP) to (Degradation DC50 CDK12) ratio” value is 279. Also, in test [2], the IC50 was 3.31 µM.

`CC[C@H](CO)Nc1nc(NCc2nc3ccccc3[nH]2)n2ncc(Br)c2n1` [Example 368, (2R)-2-[(4-{[(1H-benzimidazol-2-yl)methyl]amino}-8-bromopyrazolo[1,5-a][1,3,5]triazin-2-yl)amino]butan-1-ol]: in test [1], the DC50 amounted to 9.39 nM and the “(IC50 CDK12 high ATP) to (Degradation DC50 CDK12) ratio” value was found to be 516. In addition, the IC50 in test [2] is 4.84 µM.

As to `Cc1cc2nc(CNc3nc(N4CCOCC4)nc4c(Br)cnn34)[nH]c2cc1C` [Example 340, 8-bromo-N-[(5,6-dimethyl-1H-benzimidazol-2-yl)methyl]-2-(morpholin-4-yl)pyrazolo[1,5-a][1,3,5]triazin-4-amine], in test [1], the DC50 was 7.8 nM and the “(IC50 CDK12 high ATP) to (Degradation DC50 CDK12) ratio” value stood at 79. Also, in test [2], the IC50 was 0.618 µM.

Take `Cc1ccnc2[nH]c(CNc3nc(N4CCOCC4)nc4c(C(C)C)cnn34)nc12` [Example 28, N-[(7-methyl-3H-imidazo[4,5-b]pyridin-2-yl)methyl]-2-(morpholin-4-yl)-8-(propan-2-yl)pyrazolo[1,5-a][1,3,5]triazin-4-amine]: in test [1], the DC50 is 6.5 nM and the “(IC50 CDK12 high ATP) to (Degradation DC50 CDK12) ratio” value is 511. The IC50 in test [2] turned out to be 3.32 µM.

Consider `Fc1cc2nc(CNc3nc(N4CCOCC4)nc4c(Br)cnn34)[nH]c2cc1F` [Example 341, 8-bromo-N-[(5,6-difluoro-1H-benzimidazol-2-yl)methyl]-2-(morpholin-4-yl)pyrazolo[1,5-a][1,3,5]triazin-4-amine], for which, in test [1], the DC50 amounted to 3.55 nM and the “(IC50 CDK12 high ATP) to (Degradation DC50 CDK12) ratio” value is 624. The IC50 in test [2] turned out to be 2.22 µM.

Turning to `CN(CC(C)(C)O)c1nc(NCc2nc3cc(F)c(F)cc3[nH]2)n2ncc(C3CC3)c2n1` [Example 319, 1-[(8-cyclopropyl-4-{[(5,6-difluoro-1H-benzimidazol-2-yl)methyl]amino}pyrazolo[1,5-a][1,3,5]triazin-2-yl)(methyl)amino]-2-methylpropan-2-ol], in test [1], the DC50 amounted to 3.06 nM and the “(IC50 CDK12 high ATP) to (Degradation DC50 CDK12) ratio” value was determined as 780. Further, the IC50 in test [2] was 2.38 µM.

For `Cc1cc2nc(CNc3nc(N4CC5CCC(C4)N5)nc4c(C5CC5)cnn34)[nH]c2cc1C` [Example 326, 8-cyclopropyl-2-(3,8-diazabicyclo[3.2.1]octan-3-yl)-N-[(5,6-dimethyl-1H-benzimidazol-2-yl)methyl]pyrazolo[1,5-a][1,5]triazin-4-amine], in test [1], the DC50 is 4.77 nM and the “(IC50 CDK12 high ATP) to (Degradation DC50 CDK12) ratio” value is reported as 198. In test [2], the IC50 was 0.942 µM.

On to `CC(C)c1cnn2c(NCc3ncc(-c4ccccc4)[nH]3)nc(N3CCOCC3)nc12` [Example 30, 2-(morpholin-4-yl)-N-[(5-phenyl-1H-imidazol-2-yl)methyl]-8-(propan-2-yl)pyrazolo[1,5-a][1,3,5]triazin-4-amine], for which, in test [1], the DC50 is 25.7 nM and the “(IC50 CDK12 high ATP) to (Degradation DC50 CDK12) ratio” value was 115. Besides, the IC50 in test [2] amounted to 2.95 µM.

`Fc1cccc(-c2nnc(CNc3nc(N4CCOCC4)nc4c(C(F)(F)F)cnn34)[nH]2)c1` [Example 385, N-{[5-(3-fluorophenyl)-4H-1,2,4-triazol-3-yl]methyl}-2-(morpholin-4-yl)-8-(trifluoromethyl)pyrazolo[1,5-a][1,3,5]triazin-4-amine]: in test [1], the DC50 stood at 9.13 nM and the “(IC50 CDK12 high ATP) to (Degradation DC50 CDK12) ratio” value is listed as 31. Also, in test [2], the IC50 was 0.28 µM.

In the case of `CCNc1nc(NCc2nc(-c3ccc(C)cc3)c[nH]2)n2ncc(Br)c2n1` [Example 26, 8-bromo-N^2-ethyl-N^4-{[4-(4-methylphenyl)-1H-imidazol-2-yl]methyl}pyrazolo[1,5-a][1,3,5]triazine-2,4-diamine], in test [1], the DC50 worked out at 58.4 nM and the “(IC50 CDK12 high ATP) to (Degradation DC50 CDK12) ratio” value is 55. Moreover, the IC50 in test [2] came out at 3.21 µM.

In the case of `Fc1ccc(-c2nnc(CNc3nc(N4CCOCC4)nc4c(Br)cnn34)[nH]2)cc1` [Example 29, 8-bromo-N-{[5-(4-fluorophenyl)-4H-1,2,4-triazol-3-yl]methyl}-2-(morpholin-4-yl)pyrazolo[1,5-a][1,3,5]triazin-4-amine], in test [1], the DC50 stood at 11.8 nM and the “(IC50 CDK12 high ATP) to (Degradation DC50 CDK12) ratio” value turned out to be 310. Besides, the IC50 in test [2] worked out at 3.67 µM.

For the compound `Fc1ccc2[nH]c(CNc3nc(N4CC5CCC(C4)N5)nc4c(Cl)cnn34)nc2c1F.O=CO` [Example 360, formic acid 8-chloro-2-(3,8-diazabicyclo[3.2.1]octan-3-yl)-N-[(4,5-difluoro-1H-benzimidazol-2-yl)methyl]pyrazolo[1,5-a][1,3,5]triazin-4-amine], in test [1], the DC50 is 6.45 nM and the “(IC50 CDK12 high ATP) to (Degradation DC50 CDK12) ratio” value amounted to 622. In addition, the IC50 in test [2] worked out at 4.01 µM.

`Cc1[nH]c(CNc2nc(N3CCOCC3)nc3c(Br)cnn23)nc1-c1ccccc1` [Example 27, 8-bromo-N-[(5-methyl-4-phenyl-1H-imidazol-2-yl)methyl]-2-(morpholin-4-yl)pyrazolo[1,5-a][1,3,5]triazin-4-amine]: in test [1], the DC50 is 128 nM and the “(IC50 CDK12 high ATP) to (Degradation DC50 CDK12) ratio” value was determined as 27. The IC50 in test [2] was found to be 3.48 µM.

As for `Fc1cccc2[nH]c(CNc3nc(N4CCOCC4)nc4c(Cl)cnn34)nc12` [Example 361, 8-chloro-N-[(4-fluoro-1H-benzimidazol-2-yl)methyl]-2-(morpholin-4-yl)pyrazolo[1,5-a][1,3,5]triazin-4-amine], in test [1], the DC50 stood at 6.4 nM and the “(IC50 CDK12 high ATP) to (Degradation DC50 CDK12) ratio” value turned out to be 224. For the same compound, the IC50 in test [2] was 1.43 µM.

As to `Cc1cc2nc(CNc3nc(N4CCN(C)CC4)nc4c(Br)cnn34)[nH]c2cc1C` [Example 342, 8-bromo-N-[(5,6-dimethyl-1H-benzimidazol-2-yl)methyl]-2-(4-methylpiperazin-1-yl)pyrazolo[1,5-a][1,3,5]triazin-4-amine], in test [1], the DC50 amounted to 2.12 nM and the “(IC50 CDK12 high ATP) to (Degradation DC50 CDK12) ratio” value was found to be 3129. Further, the IC50 in test [2] came out at 6.65 µM.

With `CN1C2CCC1CN(c1nc(NCc3nc4c(F)cccc4[nH]3)n3ncc(C(F)(F)F)c3n1)C2` [Example 384, N-[(4-fluoro-1H-benzimidazol-2-yl)methyl]-2-(8-methyl-3,8-diazabicyclo[3.2.1]octan-3-yl)-8-(trifluoromethyl)pyrazolo[1,5-a][1,3,5]triazin-4-amine], in test [1], the DC50 was found to be 11 nM and the “(IC50 CDK12 high ATP) to (Degradation DC50 CDK12) ratio” value turned out to be 735. Moreover, the IC50 in test [2] was 8.11 µM.

On to `CC[C@@H](CO)Nc1nc(NCc2nc3ccccc3[nH]2)n2ncc(Br)c2n1` [Example 367, (2S)-2-[(4-{[(1H-benzimidazol-2-yl)methyl]amino}-8-bromopyrazolo[1,5-a][1,3,5]triazin-2-yl)amino]butan-1-ol], for which, in test [1], the DC50 was 12.7 nM and the “(IC50 CDK12 high ATP) to (Degradation DC50 CDK12) ratio” value worked out at 231. In addition, in test [2], the IC50 was 2.93 µM.

Consider `CC[C@H](COC)Nc1nc(NCc2nc3ccccc3[nH]2)n2ncc(Br)c2n1` [Example 369, N4-[(1H-benzimidazol-2-yl)methyl]-8-bromo-N2-[(2R)-1-methoxybutan-2-yl]pyrazolo[1,5-a][1,3,5]triazine-2,4-diamine], for which, in test [1], the DC50 came to 20.6 nM and the “(IC50 CDK12 high ATP) to (Degradation DC50 CDK12) ratio” value is reported as more than 970. The IC50 in test [2] was more than 20 µM.

Take `Fc1cc(F)cc(-c2nnc(CNc3nc(N4CCOCC4)nc4c(C(F)(F)F)cnn34)[nH]2)c1` [Example 386, N-{[5-(3,5-difluorophenyl)-4H-1,2,4-triazol-3-yl]methyl}-2-(morpholin-4-yl)-8-(trifluoromethyl)pyrazolo[1,5-a][1,3,5]triazin-4-amine]: in test [1], the DC50 came out at 9.83 nM and the “(IC50 CDK12 high ATP) to (Degradation DC50 CDK12) ratio” value is given as 12. Moreover, in test [2], the IC50 stood at 0.115 µM.
